Results on one compound are retold here after PMC9415509, “Pro-Apoptotic Antitumoral Effect of Novel Acridine-Core Naphthoquinone Compounds against Oral Squamous Cell Carcinoma” (Molecules, 2022).

Some results are limits rather than exact numbers.

Series [1] relates to SCC25 OSCC cell line. Nature of the series: MTT cell viability assay (cytotoxicity), SCC25. Type of series: cell-based, human. Here is the method:
Cells and reagents. Human SCC-4, SCC-9, and SCC-25 cells, derived from a human oral tongue SCC (squamous cell carcinoma) were obtained from the ATCC (CRL-1624, CRL-1629, and CRL-1628, respectively) and maintained in 1:1 DMEM/F12 (Dulbecco’s modified Eagle medium and Ham’s F12 medium; Gibco (Thermo Fisher, Waltham, MA, USA)) supplemented with 10% (v/v) FBS (fetal bovine serum; Invitrogen, Thermo Fisher, Waltham, MA, USA) and 400 ng/mL hydrocortisone (Sigma-Aldrich Co., St. Louis, MO, USA). Primary normal human gingival fibroblasts were obtained from the ATCC (PCS-201-018) and maintained in DMEM supplemented with 10% (v/v) FBS and were used in a maximum of six passages. The cells were grown in a humidified environment containing 5% CO2 at 37 °C. […] Carboplatin stock was prepared in water (Fauldcarbo®; LibbsFarmacêutica, São Paulo, SP, Brazil) and was used as a standard anticancer compound.
Cell viability assay (cytotoxicity) and compound stability assay. The viability of SCC cell lines and primary human fibroblast cells was evaluated using the MTT assay as in [48]. Briefly, the cells were grown in triplicates in 96-well plates (5 × 10^3 cells/well) until confluence. Then, the medium was removed, fresh medium was added, and the cells were returned to the incubator in the presence of different compounds. DMSO at the same concentrations was used as a 100% cell viability control. After 48 h, the cells were incubated with 5 mg/mL MTT reagent (3-(4,5-dimethyl-2-thiazolyl)-2,5-diphenyl-2-H-tetrazolium bromide) (Sigma-Aldrich Co., St. Louis, MO, USA) for 3.5 h. After that, formazan crystals were dissolved in MTT solvent solution (DMSO/methanol 1:1 v/v) and the absorbance at 560 nm was evaluated using an EPOCH microplate spectrophotometer (BioTek Instruments, Winooski, VT, USA) with the background absorbance at 670 nm subtracted.
Statistical analysis, IC50 calculation. The data are presented as means ±\SD. IC50 values for the MTT assays were obtained by nonlinear regression using the […] 5.0 program (Intuitive Software for Science, San Diego, CA, USA) from at least three independent experiments. A dose–response (inhibitor) vs. response curve using the least squares method was used to determine the IC50, SD, and R^2 of the data. The selectivity index was calculated as SI = IC50 of the compound in normal oral fibroblast cells/IC50 of the same compound for each oral cancer cell line (SCC-4, SCC-9, and SCC-25) and the mean was calculated when indicated.
A general note: Tetrazolium dyes change colour on reduction, which living cells bring about.

Series [2] has as its system SCC9 cells. The series can be described thus: Phosphatidylserine exposure analysis (Annexin V/PI). Conditions: SCC9, 48 h. Type of series: cell-based, human. As to the method: Phosphatidylserine exposure analysis (apoptosis). Cells of the SCC9 cell line were plated in 6-well plates (5 × 10^5 cells/well), trypsinized 48 h after treatment, labeled using the Annexin V-FITC Apoptosis Detection Kit according to the manufacturer’s protocol (#BMS500FI/300, Invitrogen), and analyzed by FACScalibur flow cytometry as in [50]. Furthermore, 5 × 10^4 SCC9 cells were plated in a 24-well plate containing 1 mL of DMEM/F12 with 10% FBS per well. CellEvent™ Caspase-3/7 Reagent (#R37111, Invitrogen) was diluted in a culture medium according to the manufacturer’s instructions. […] The cells were analyzed by flow cytometry at the time of 48 h of treatment.

Series [3] has as its system SCC9 cells. Nature of the series: Time-lapse video microscopy. The class given is cell-based, human. Particulars: SCC9, 2 × IC50, 72 h time-lapse. Here is the method:
Video microscopy. […] For 72 h, phase-contrast images of the same field were captured every minute using a Hamamatsu C2400 CCD camera (Hamamatsu, Japan). The images of each experimental condition were integrated into videos using ImageJ software (National Institute of Health, Bethesda, MD, USA), and different times (indicated) were selected according to the morphological change observed during the treatment.

A short description of series [4]: Hemolysis assay. Type of series: cell-based. Particulars: human, human erythrocytes, relative to triton x-100 = 100% lysis. As to the method:
Hemolysis assay. To determine the surfactant power of substances in biological membranes, a hemolysis assay was performed using human blood approved by the Research Ethics Committee of Universidade Federal Fluminense (CAAE: 43134721.4.0000.5626). Erythrocytes were collected for centrifugation at 1500 rpm for 15 min, washed with PBS (phosphate-buffered saline) supplemented with 10 mM glucose, and counted in an automatic cell counter (Thermo Fisher, Waltham, MA, USA). Erythrocytes were then plated in 96-well plates at a concentration of 4 × 10^8 cells/well in triplicates, and 10 µL of compounds was added at a final concentration of 300 µM in PBS with glucose (final volume 100 µL). In total, 10 µL of PBS was used as a negative control and 10 µL of PBS with 0.1% Triton ×100 as a positive control. Data reading was performed with EPOCH (BioTek Instruments, Winooski, VT, USA) at an absorbance of 540 nm, and the statistical data were generated using the […] Prism 5.0 program (Intuitive Software for Science, San Diego, CA, USA).

For orientation: IC50 means the concentration that gives 50% inhibition. Take `CC1(C)CC(=O)C2=C(C1)NC1=C(C(=O)c3ccccc3C1=O)C2c1ccc(Cl)cc1Cl` (centres unmarked) [4e, 12-(2,4-dichlorophenyl)-3,3-dimethyl-3,4-dihydrobenzo[b]acridine-1,6,11(2H,5H,12H)-trione]: in series [1] (Homo sapiens, SCC-25, SCC25, 48 h, MTT, read-out: Oral Tumor Cells SCC25 IC50), the IC50 was found to be 21.5 µM. Further, in series [1] (IC50 normal oral fibroblasts / IC50 SCC25), the “SCC25 S.I.” value came out at 4.1. Besides, the “Annexin V and Annexin V + PI staining” value in series [2] is “increased single (Annexin V) and double (Annexin V + PI) staining”. Besides, in series [3], the cell morphology entry was “formation of membrane blebs at early times, between 16 and 48 h, followed by cells shrinkage”. Besides, in series [4], the hemolysis at 300 µM was less than 3%.
